Assay results taken from US11186583B2, “5-alkylthio-7-[(4-arylbenzyl)amino]-1(2)H-pyrazolo[4,3-d]pyrimidines for treatment of lymphoma” (UNIVERZITA PALACKEHO V OLOMOUCI, priority 2018, dated 2021).

How the values were obtained:
Format in all cases: cell-based
[1] = test system: HT (diffuse large B-cell lymphoma, subtype—germinal center B-cell); assay: MTT cytotoxicity assay, HT lymphoma cell line; details: Homo sapiens, 72 h, HT cells, three days, read-out: Lymphoma cell lines GI50, HT
From the text: (§1) Cytotoxicity of the compounds is the major property determining their anti-lymphoma efficacy in vitro. One of the parameters used, as the basis for cytotoxicity assays, is the metabolic activity of viable cells. For example 2, a microtiter assay, which uses (3-(4,5-dimethylthiazol-2-yl)-2,5-diphenyltetrazolium bromide (MTT), is widely used to quantitate cell proliferation and cytotoxicity. This assay is widely used in drug screening programs and in chemosensitivity testing. Because only metabolically active living cells reduce MTT to correspond purple formazan dye, these assays detect viable cells exclusively. The quantity of reduced MTT corresponds to the number of vital cells in the culture.
(§2) The compounds were assayed using the following lymphoma cell lines: HT (diffuse large B-cell lymphoma, subtype—germinal center B-cell), OCI-LY2 (diffuse large B-cell lymphoma, subtype—germinal center B-cell), MINO (mantle cell lymphoma). All cell lines were grown in RPMI medium supplemented with fetal bovine serum and glutamine and maintained at 37° C. in a humidified atmosphere with 5% CO2. For cytotoxicity assays, 5000-10000 cells were seeded into each well of 96 well plate, allowed to stabilize for at least 8 h and then tested compounds were added at various concentrations ranging from 100 to 0.01 μM in triplicates. After three days, MTT solution (5 mg/ml; Sigma, St. Louis, USA) was added to cells and medium was replaced with DMSO after five hours. The absorbance was measured at 620 nm by employing a microplate reader. MTT assays were repeated 3 times for each drug application and untreated cells were used as reference. The GI50 values, drug concentrations lethal to 50% of the cells, were calculated from the obtained dose response curves.

[2] = test system: OCI-LY2 (diffuse large B-cell lymphoma, subtype—germinal center B-cell); assay: MTT cytotoxicity assay, OCI-LY2 lymphoma cell line; details: 72 h, OCI-LY2 cells, three days, read-out: Lymphoma cell lines GI50, OCI-LY2
From the text: as §1, §2

[3] = test system: MINO (mantle cell lymphoma); assay: MTT cytotoxicity assay, MINO lymphoma cell line; details: Homo sapiens, 72 h, MINO cells, three days, read-out: Lymphoma cell lines GI50, MINO
From the text: as §1, §2

Row | SMILES | GI50 [1] [nM] | GI50 [2] [nM] | GI50 [3] [nM]
1 | CC(C)c1n[nH]c2c(NCc3ccc(-c4ccccn4)cc3)nc(SCCCO)nc12 [Compound 4.8, 5-(3-Hydroxy-1-propyl)thio-3-isopropyl-7-[4-(2-pyridyl)benzyl]amino-1(2)H-pyrazolo[4,3-d]pyrimidine] | 109 | 102 | 89
2 | CC(C)c1n[nH]c2c(NCc3ccc(-c4ccccn4)cc3)nc(SCC(O)C(F)(F)F)nc12 (stereo not drawn) [Compound 4.32, 5-(3,3,3-Trifluoro-2-hydroxy-1-propyl)thio-3-isopropyl-7-[4-(2-pyridyl)benzyl]amino-1(2)H-pyrazolo[4,3-d]pyrimidine] | 690 | 585 | 641
3 | CC(C)c1n[nH]c2c(NCc3ccc(-c4ccccn4)cc3)nc(SCC(O)CO)nc12 (stereo not drawn) [Compound 4.18, 5-(2,3-Dihydroxy-1-propyl)thio-3-isopropyl-7-[4-(2-pyridyl)benzyl]amino-1(2)H-pyrazolo[4,3-d]pyrimidine] | 21 | 22 | 10
4 | CNCCSc1nc(NCc2ccc(-c3ccccn3)cc2)c2[nH]nc(C(C)C)c2n1 [Compound 4.34, 5-(3-Methylamino-1-ethyl)thio-3-isopropyl-7-[4-(2-pyridyl)benzyl]amino-1(2)H-pyrazolo[4,3-d]pyrimidine] | 56 | 92 | 40
5 | CC(C)c1n[nH]c2c(NCc3ccc(-c4ccccn4)cc3)nc(SCC(O)CN3CCNCC3)nc12 (stereo not drawn) [Compound 4.25, 5-[3-(1-Piperazinyl)-2-hydroxy-1-propyl]thio-3-isopropyl-7-[4-(2-pyridyl)benzyl]amino-1(2)H-pyrazolo[4,3-d]pyrimidine] | 332 | 435 | 767
6 | CC(C)c1n[nH]c2c(NCc3ccc(-c4ccccn4)cc3)nc(SCC3CNC(=O)O3)nc12 (stereo not drawn) [Compound 4.28, 5-[(Oxazolidin-2-on-5-yl)methyl]thio-3-isopropyl-7-[4-(2-pyridyl)benzyl]amino-1(2)H-pyrazolo[4,3-d]pyrimidine] | 80 | 53 | 69
7 | CC(C)c1n[nH]c2c(NCc3ccc(-c4ccccn4)cc3)nc(SCCN(C)C)nc12 [Compound 4.19] | 54 | 61 | 93
8 | CC(C)c1n[nH]c2c(NCc3ccc(-c4ccccn4)cc3)nc(SCCCN(C)C)nc12 [Compound 4.20, 5[3-(Dimethylamino)-1-propyl]thio-3-isopropyl-7-[4-(2-pyridyl)benzyl]amino-1(2)H-pyrazolo[4,3-d]pyrimidine] | 105 | 109 | 76
9 | CC(C)c1n[nH]c2c(NCc3ccc(-c4ccccn4)cc3)nc(SCCCN)nc12 [Compound 4.27, 5-(3-Amino-1-propyl)thio-3-isopropyl-7-[4-(2-pyridyl)benzyl]amino-1(2)H-pyrazolo[4,3-d]pyrimidine] | 120 | 151 | 156
10 | CC(C)c1n[nH]c2c(NCc3ccc(-c4ccccn4)cc3)nc(SCCC(N)=O)nc12 [Compound 4.6, 5-(2-Carbamoyl-1-ethyl)thio-3-isopropyl-7-[4-(2-pyridyl)benzyl]amino-1(2)H-pyrazolo[4,3-d]pyrimidine] | 120 | 84 | 81
11 | CSCCSc1nc(NCc2ccc(-c3ccccn3)cc2)c2[nH]nc(C(C)C)c2n1 [Compound 4.30, 5-(2-Methylthio-1-ethyl)thio-3-isopropyl-7-[4-(2-pyridyl)benzyl]amino-1(2)H-pyrazolo[4,3-d]pyrimidine] | 975 | 668 | 773
12 | CC(C)c1n[nH]c2c(NCc3ccc(-c4ccccn4)cc3)nc(SCC(O)CN3CCOCC3)nc12 (stereo not drawn) [Compound 4.24] | 200 | 200 | 243
13 | CC(O)CSc1nc(NCc2ccc(-c3ccccn3)cc2)c2[nH]nc(C(C)C)c2n1 (stereo not drawn) [Compound 4.3, 5-(2-Hydroxy-1-propyl)thio-3-isopropyl-7-[4-(2-pyridyl)benzyl]amino-1(2)H-pyrazolo[4,3-d]pyrimidine] | 62 | 152 | 81
14 | CC(C)c1n[nH]c2c(NCc3ccc(-c4ccccn4)cc3)nc(SCC(O)CN)nc12 (racemic) [Compound 4.23, 5-(R/S)-(3-Amino-2-hydroxy-1-propyl)thio-3-isopropyl-7-[4-(2-pyridyl)benzyl]amino-1(2)H-pyrazolo[4,3-d]pyrimidine] | 55 | 55 | 64
15 | CC(C)c1n[nH]c2c(NCc3ccc(-c4ccccn4)cc3)nc(SCCNC(=N)N)nc12 [Compound 4.10, 5-(2-Guanidino-1-ethyl)thio-3-isopropyl-7-[4-(2-pyridyl)benzyl]amino-1(2)H-pyrazolo[4,3-d]pyrimidine] | 390 | 812 | 390
16 | CC(C)c1n[nH]c2c(NCc3ccc(-c4ccccn4)cc3)nc(SCC(C)(C)O)nc12 [Compound 4.17, 5-(2-Hydroxy-2-methyl-1-propyl)thio-3-isopropyl-7-[4-(2-pyridyl)benzyl]amino-1(2)H-pyrazolo[4,3-d]pyrimidine] | 507 | 610 | 477
17 | CC(C)c1n[nH]c2c(NCc3ccc(-c4ccccn4)cc3)nc(SC3CCCCC3N)nc12 (stereo not drawn) [Compound 4.31, 5-(2-Aminocyclohexyl)thio-3-isopropyl-7-[4-(2-pyridyl)benzyl]amino-1(2)H-pyrazolo[4,3-d]pyrimidine] | 139 | 136 | 157
18 | CC(C)c1n[nH]c2c(NCc3ccc(-c4ccccn4)cc3)nc(SC3CCCCC3O)nc12 (stereo not drawn) [Compound 4.14, 5-(2-Hydroxycyclohexyl1-yl)thio-3-isopropyl-7-[4-(2-pyridyl)benzyl]amino-1(2)H-pyrazolo[4,3-d]pyrimidine] | 636 | 680 | 530
19 | CC(C)c1n[nH]c2c(NCc3ccc(-c4ccccn4)cc3)nc(SCCO)nc12 [Compound 4.1, 5-(2-Hydroxy-1-ethyl)thio-3-isopropyl-7-[4-(2-pyridyl)benzyl]amino-1(2)H-pyrazolo[4,3-d]pyrimidine] | 48 | 50 | 40
20 | CC(=O)NCCSc1nc(NCc2ccc(-c3ccccn3)cc2)c2[nH]nc(C(C)C)c2n1 [Compound 4.12, 5-(2-Acetylamino-1-ethyl)thio-3-isopropyl-7-[4-(2-pyridyl)benzyl]amino-1(2)H-pyrazolo[4,3-d]pyrimidine] | 71 | 54 | 42
21 | CC(C)c1n[nH]c2c(NCc3ccc(-c4ccccn4)cc3)nc(SCCn3ccnc3)nc12 [Compound 4.26, 5-[2-(1-Imidazolyl)-1-ethyl]thio-3-isopropyl-7-[4-(2-pyridyl)benzyl]amino-1(2)H-pyrazolo[4,3-d]pyrimidine] | 155 | 145 | 135
22 | CC(C)c1n[nH]c2c(NCc3ccc(-c4ccccn4)cc3)nc(SCC(C)(C)N)nc12 [Compound 4.13, 5-(2-Amino-2-methyl-1-propyl)thio-3-isopropyl-7-[4-(2-pyridyl)benzyl]amino-1(2)H-pyrazolo[4,3-d]pyrimidin] | 85 | 100 | 64
